Test results: US9523691B2, “Use of the olfactomedin-4 protein (OLFM4) in colorectal cancer diagnosis” (INSTITUT DE CANCEROLOGIE DE L'OUEST, priority 2011, dated 2016)

Tested on: wild type HCT116 cells
Test: Clonogenic cell survival assay, OLFM4 added to the medium with genotoxic treatment
Format: cell-based, human
Details: 10 days
Experimental: The influence of OLFM4 following genotoxic treatments in HCT116 OLFM4 inducible cells was evaluated by clonogenic assay. Cells were incubated with 50 ng/ml of doxycyclin, and then 24 hr later treated with oxaliplatin or sn38 at the indicated concentration for 10 days. The colonies were stained with crystal violet and counted by QuantityOne software (Biorad). B. OLFM4 overexpressed in COS7 cells, was added at approximately 3 ng/ml to oxaliplatin and sn38 treatment in the wild type HCT116 cells for 10 days. The colonies were stained and count as above. The histograms shown are representative of three individual experiments.
The human colon adenocarcinoma cell line HCT116 (American Type Culture Collection, ATCC) were maintained in antibiotic-free RPMI 1640 medium (Lonza). Cultures were supplemented with 10% fetal bovine serum. […]
HCT116 stable OLFM4 cells were seeded at 300 cells into 6 well cell culture plates with RPMI 1640 medium supplement with 3% fetal bovine serum and incubated at 37° C. in a 5% CO2 atmosphere. […] The number of colonies exceeding 50 cells was visualized with a Bio-Rad Chemi Doc XRS Imaging device and counted using Quantity One imaging software (Bio-Rad). The survival fraction was determined as the ratio of the number of colonies observed without doxycycline to the number of cells with doxycycline, adjusted to the plating efficiency.

Substance: OLFM4: Secreted N-glycosylated protein of 510 residues, overexpressed in COS7 cells and added to culture medium
- resistance to oxaliplatin (colony survival, clonogenic assay) (OLFM4 overexpressed in COS7 cells added at approximately 3 ng/ml to oxaliplatin treatment): promotes resistance
- resistance to sn38 (colony survival, clonogenic assay) (OLFM4 overexpressed in COS7 cells added at approximately 3 ng/ml to sn38 treatment): promotes resistance
